Source: ChEMBL document CHEMBL1141558, “Design and synthesis of a siderophore conjugate as a potent PSMA inhibitor and potential diagnostic agent for prostate cancer” (Bioorg Med Chem, 2008)

What was measured:
[1] = molecular target: T1, Glutamate carboxypeptidase 2 (Homo sapiens, UniProt Q04609); test: Inhibition of human recombinant NAALADase
[2] = molecular target: T1, Glutamate carboxypeptidase 2; test: Inhibition of NAALADase expressed in LNCaP human prostate cancer cells; type: cell-based

T1 sequence (Q04609 whole entry): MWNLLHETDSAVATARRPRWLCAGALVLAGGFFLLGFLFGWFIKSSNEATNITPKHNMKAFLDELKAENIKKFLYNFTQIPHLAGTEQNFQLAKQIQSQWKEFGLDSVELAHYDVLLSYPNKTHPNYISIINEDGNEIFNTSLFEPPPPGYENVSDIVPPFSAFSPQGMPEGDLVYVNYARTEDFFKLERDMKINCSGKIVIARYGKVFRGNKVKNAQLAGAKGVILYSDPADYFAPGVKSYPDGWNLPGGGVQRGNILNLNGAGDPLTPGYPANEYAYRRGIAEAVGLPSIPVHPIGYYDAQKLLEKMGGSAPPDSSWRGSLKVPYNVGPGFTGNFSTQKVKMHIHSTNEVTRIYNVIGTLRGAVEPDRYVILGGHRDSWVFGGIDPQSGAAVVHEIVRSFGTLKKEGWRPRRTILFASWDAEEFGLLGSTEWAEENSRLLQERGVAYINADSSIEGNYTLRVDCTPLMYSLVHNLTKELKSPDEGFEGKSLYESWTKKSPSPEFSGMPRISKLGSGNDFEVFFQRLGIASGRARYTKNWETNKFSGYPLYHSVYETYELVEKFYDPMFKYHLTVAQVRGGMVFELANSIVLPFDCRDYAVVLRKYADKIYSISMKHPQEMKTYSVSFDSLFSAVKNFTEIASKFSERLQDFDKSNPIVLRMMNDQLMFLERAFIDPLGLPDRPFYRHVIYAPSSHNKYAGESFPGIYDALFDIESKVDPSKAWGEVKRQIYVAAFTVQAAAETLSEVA

Structure (SMILES): CC(=O)N[C@@H](CCCN(O)C(C)=O)C(=O)N[C@@H](CCCN(O)C(C)=O)C(=O)N[C@@H](CCCN(O)C(C)=O)C(=O)NCCCC(=O)c1ccc(C(=O)NCC(=O)Nc2ccc(CCOP(=O)(O)C[C@@H](CCC(=O)O)C(=O)O)cc2)cc1
- IC50 [1]: 4 nM

Structure (SMILES): O=C(O)CCC(CP(=O)(O)OCc1ccccc1)C(=O)O (configuration not stated)
- IC50 [2]: 12.5 nM
